Results reported in ChEMBL document CHEMBL1133981, “Synthesis of a reported calpain inhibitor isolated from Streptomyces griseus” (Bioorg Med Chem Lett, 2001).
Calls of active or inactive are those of the source. No cut-off for these calls is given here.

Key:
[1] = target: T1, Calpain small subunit 1 (Sus scrofa) (UniProt P04574); assay: Compound was tested for its inhibitory activity against porcine erythrocyte Calpain 1 up to a concentration of 1 mM; NA=Not active
T1 sequence (whole entry): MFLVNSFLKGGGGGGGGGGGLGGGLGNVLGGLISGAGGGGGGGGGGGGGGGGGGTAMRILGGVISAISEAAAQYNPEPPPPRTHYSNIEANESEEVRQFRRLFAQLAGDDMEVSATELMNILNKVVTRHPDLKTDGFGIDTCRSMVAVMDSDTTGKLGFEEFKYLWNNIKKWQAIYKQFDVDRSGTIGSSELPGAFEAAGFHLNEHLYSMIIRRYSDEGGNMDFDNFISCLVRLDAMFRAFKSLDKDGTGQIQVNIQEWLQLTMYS

[2] = target: T2, Calpain-1 catalytic subunit (Homo sapiens, UniProt P07384); assay: Compound was tested for its inhibitory activity against calpain […]
T2 sequence (P07384 whole entry): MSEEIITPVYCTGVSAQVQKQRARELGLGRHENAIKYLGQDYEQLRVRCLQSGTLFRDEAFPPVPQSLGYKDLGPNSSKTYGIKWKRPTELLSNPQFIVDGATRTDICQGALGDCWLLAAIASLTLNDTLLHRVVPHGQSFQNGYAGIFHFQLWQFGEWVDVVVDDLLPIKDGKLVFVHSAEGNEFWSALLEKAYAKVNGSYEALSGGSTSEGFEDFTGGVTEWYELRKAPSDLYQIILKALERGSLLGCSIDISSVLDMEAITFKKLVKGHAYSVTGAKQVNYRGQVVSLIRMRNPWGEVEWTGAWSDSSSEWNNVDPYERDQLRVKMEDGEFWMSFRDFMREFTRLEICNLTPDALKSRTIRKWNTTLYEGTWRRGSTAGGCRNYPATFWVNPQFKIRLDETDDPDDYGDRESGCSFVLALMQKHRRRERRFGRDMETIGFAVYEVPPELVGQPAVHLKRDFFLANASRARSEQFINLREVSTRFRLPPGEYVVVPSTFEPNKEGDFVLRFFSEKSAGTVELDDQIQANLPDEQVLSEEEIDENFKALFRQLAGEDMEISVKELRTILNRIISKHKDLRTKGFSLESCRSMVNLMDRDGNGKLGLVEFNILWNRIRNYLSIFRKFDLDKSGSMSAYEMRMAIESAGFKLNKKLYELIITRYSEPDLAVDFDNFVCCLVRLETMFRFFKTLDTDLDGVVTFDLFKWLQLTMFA

[3] = target: T2, Calpain-1 catalytic subunit; assay: Compound was tested for its inhibitory activity against calpain […] (SC488)

Compound	Activity [1]	IC50 [2] [nM]	IC50 [3] [nM]
CN1C(=O)[C@H](Cc2ccccc2)N(C)C(=O)[C@@H]1Cc1ccccc1	inactive		
CC(C)c1ncc(Cc2ccccc2)[nH]c1=O		1200	
CN1C(=O)[C@H](Cc2ccc(O)cc2)N(C)C(=O)[C@@H]1Cc1ccc(O)cc1	inactive		800
CN1C(=O)[C@H](Cc2ccccc2)N(C)C(=O)[C@H]1Cc1ccccc1	inactive		
